In ChEMBL document CHEMBL6092147, “Design of inhibitors of SARS-CoV-2 papain-like protease deriving from GRL0617: Structure-activity relationships” (Bioorg Med Chem, 2024):

Test: Inhibition of SARS-CoV-2 wild type papain-like protease (PLpro) C111S mutant extracted from Escherichia coli using LKGG-AMC as substrate incubated for 60 mins by fluorescence based analysis
Set-up: species or system Severe acute respiratory syndrome coronavirus 2

Row | Compound | IC50 [µM]
1 | CCC(=O)Nc1ccc(C)c(C(=O)N[C@H](C)c2cccc3ccccc23)c1 | 6.4
2 | Cc1ccc(NC(=O)NC(N)=O)cc1C(=O)N[C@H](C)c1cccc2ccccc12 | 5.1
